Our source for the absorbance values values is patent publication US6933123B2, “Peptides from the E2, E6, and E7 proteins of human papilloma viruses 16 and 18 for detecting and/or diagnosing cervical and other human papillomavirus associated cancers” (priority 2001, dated 2005).

No end group written: not given here.

This assay concerns antibodies formed against human papillomavirus (HPV). Nature of the assay: ELISA immunoassay of titer-plate-bound HPV peptides with subject serum (antibody-peptide complex, HRP anti-human IgG, TMB). The settings on record: serum of Subject 6 (low pre-test probability, no HPV DNA detected), diluted 1:25; absorbance read at 450 nm. It is filed as binding. Here is the method: REACTI-BIND™ Maleic Anhydride Activated Polystyrene Plates (Pierce, Rockford, Ill.) may be employed. Each amino acid sequence may be diluted to 12.5 μg/mL with coating buffer (100 mM sodium bicarbonate buffer, pH 9.4). To each titer well, 100 μL (1.25 μg) of the diluted sequence solution may be added. The plate may then be incubated for one hour at room temperature with shaking. The plate may be emptied and residual liquid tapped onto a clean paper towel. Each well may be washed with 100 μL wash buffer (0.1% bovine serum albumin and 0.05% Tween-20 in phosphate buffered saline, pH 7.0). This may be repeated for a total of three times. Each time, the plate may be emptied and residual liquid tapped onto a clean paper towel. To each well, 200 μL of blocking solution (3% bovine serum albumin and 0.05% Tween-20 in phosphate buffered saline, pH 7.0) may be added.
Blocking solution may be left in each well for one minute. The titer plate may then be emptied by inversion. Filling with blocking solution and emptying may be done three times. Finished titer plates may be dried at room temperature and stored at 4° C. for up to four months.
For negative samples, serum may be obtained from virgin females, ages 14 and 15, and from adult sexually active, monogamous women, more than 25 years old, with histories of no Pap smear abnormalities and DNA verification of HPV absence. Positive samples consisted of serum obtained from females diagnosed with cervical cancer or precancerous disease. Subject and control sera may be diluted 1:25 with wash buffer (0.1% bovine serum albumin and […] in phosphate buffered saline, pH 7.0). To each well, 100 μL of diluted serum may be added, and the assay plate incubated for one hour at room temperature with shaking. Each well may then be rinsed three times, each with 200 μL wash buffer. Each rinse may be for five minutes. […]
The bottom of the titer plate may be cleaned with 70% ethanol, and the titer plate loaded into the spectrophotometer. Absorbance may be read at 450 nm, with […] of TMB solution plus […] of 2N HCl used as a blank control.
“HAGGQVILCPTSVFSSNEVSSPE [SEQ ID NO 3, 23 residues making up amino acids 187 through 209 of the HPV 16 E2 oncoprotein]” displayed an absorbance values of 0.49.

Consider “KHGYTVQFDGICNTMHY [SEQ ID NO 2, 17 residues making up amino acids 112 through 131 of the HPV 16 E2 oncoprotein]”, for which the absorbance values came to 0.32.

As for “Lys Gln Leu Gln His Thr Pro Ser Pro Tyr Ser Ser Thr Val Ser Val Gly Thr Ala Lys Thr Tyr [SEQ ID NO 1]”, the absorbance values is given as 0.44.
